Values quoted from earlier work, collected in patent US8644910B2, “Imaging protocols” (Biosensors International Group, Ltd., priority 2005, dated 2014).
Read-outs that look alike come from different tables or passages of the source.

What was measured:
[1] = 600 MBq, common bone scan
[2] = prepared product
[3] = administration to lactating women
[4] = not given; remark: listed apart in the source
[5] = stored at 15-25° C. before and after reconstitution

Question: For `O=P(O)(O)CP(=O)(O)O` [^99mTc-MDP, medronate, metal not drawn], which effective dose [1] is on record?
Answer: Its effective dose is 3 mSv.

Question: For “Technetium Tc 99m Arcitumomab (CEA-Scan)”, which shelf life [2] is on record?
Answer: Its shelf life is at most 4 h.

Question: With `N=C(N)NCc1cccc([131I])c1` [^123I-metaiodobenzylguanidine, metaiodobenzylguanidine] as the compound, how does the “breast feeding interruption advised” value [3] read?
Answer: The value was “brief interruption (hours to days)”.

Question: For `[99Tc].[C-]#[N+]CC(C)(C)OC.[C-]#[N+]CC(C)(C)OC.[C-]#[N+]CC(C)(C)OC.[C-]#[N+]CC(C)(C)OC.[C-]#[N+]CC(C)(C)OC.[C-]#[N+]CC(C)(C)OC` [^99mTc-Sestamibi, technetium-99m-methoxyisobutylisonitrile], which “cleared through the feces” value (in 48 hours) is on record?
Answer: Its value is “approximately thirty-three”.

Question: What about the “excreted in the urine” value (in vivo) of the same compound?
Answer: The value was “Twenty-seven”.

Question: What about the “major pathway for clearance” value (in vivo) of the same compound?
Answer: The value was “hepatobiliary system”.

Question: And the metabolism (in vivo)?
Answer: The metabolism was “excreted without any evidence of metabolism”.

Question: And the Myocardial uptake ([4]; at exercise)?
Answer: The Myocardial uptake was 1.5 % of the injected dose.

Question: And the Myocardial uptake ([4]; at rest)?
Answer: Its Myocardial uptake is 1.2 % of the injected dose.

Question: What about the “time for use after preparation” value [5] of the same compound?
Answer: The value was at most 6 h.

Question: With `[Na+].[O]=[Tc](=[O])(=[O])[O-]` [^99mTc-pertechnetate, Sodium pertechnetate] as the compound, how does the “breast feeding interruption advised” value [3] read?
Answer: The value was “brief interruption (hours to days)”.

Question: For `O=C([O-])CC(O)(CC(=O)[O-])C(=O)[O-].[Ga+3]` [^67Ga-citrate, Gallium Citrate], which “breast feeding interruption advised” value [3] is on record?
Answer: Its value is “Complete cessation”.

Question: With `[Cl][201Tl]` [^201Tl, Tl-201-thallous chloride] as the compound, how does the “breast feeding interruption advised” value [3] read?
Answer: The value was “brief interruption (hours to days)”.

Question: Which “breast feeding interruption advised” value [3] does the source give for `[I-].[Na+]` [^123I-sodium iodide, sodium iodide] here?
Answer: Its value is “Complete cessation”.
